Tests used:
Assay type in all cases: cell-based
[1] = test system: Human Follicle Dermal Papilla Cells (HFDPC); experiment: Assessment of cell morphology by phase contrast microscopy; settings: for cell adherence and proliferation (summary of morphology): diosgenin concentration-dependent
Description: (§1) First, Human Follicle Dermal Papilla Cells (HFDPC) cells were thawed and seeded into collagen-coated cell culture flasks (T25). Then the medium was changed every 48 h. After 4 days the cells were trypsinized and seeded in T75 cell culture flask. In preparation for the final experiment, the cells were trypsinized and then counted with a cell counter. The cell concentration was then adjusted in a defined amount of medium followed by seeding of the cells in 96-well plates for the subsequent cell impedance measurements (5000 cells per well) or in 24-well plates (20000 cells per well). Subsequently, the cells were cultivated for 7 days in pure culture medium with regular medium changes after 2-3 days. After 7 days, the medium with the additives listed in Table 1 was added (designated as day 0), followed by a 3-week cultivation of the cells. The medium (and addition of fresh active substances) was changed every 2-3 days. […] The following examinations were carried out after 7, 14 and 21 days.
Cell morphology was assessed through microscopic examination of the cells with an inverted microscope (phase contrast microscopy) at 10x and 20x primary magnification. The morphology of the cells provides information on the adherence behaviour of the cells,possible cell activation and cell stress. This examination was carried out on a 24-well scale.

[2] = test system: Human Follicle Dermal Papilla Cells (HFDPC); experiment: VEGF-ELISA (VEGF secretion)
Description: VEGF belongs to the signal molecules and stimulates the proliferation and migration of HFDPC. HFDPC generate more VEGF in the anagen phase. Thus, VEGF is an indication of the anagen phase of a hair. The detection of the VEGF protein was performed with the Human VEGF ELISA Kit from Invitrogen. The procedure was performed according to the protocol contained in the test kit with the cell supernatants previously frozen at -80°C. The removal of the cell culture supernatants was carried out on a 24-well scale. A higher value for the VEGF [pg/ml] (y-axis) means a higher value of detected VEGF. A higher VEGF value is an indication for a longer anagen phase. A longer anagen phase is an indication for more hair growth.
as §1
VEGF belongs to the signal molecules and stimulates the proliferation and migration of HFDPC. HFDPC generate more VEGF in the anagen phase. Thus VEGF is an indication of the anagen phase of a hair. […] The detection of the VEGF protein was performed with the Human VEGF ELISA Kit from invitrogen. The procedure was performed according to the protocol contained in the test kit with the cell supernatants previously frozen at -80°C. The removal of the cell culture supernatants was carried out on a 24-well scale.
VEGF was analyzed in the cell culture supernatant to check whether the active ingredients have an influence on cell function and, if so, whether they promote the release of VEGF (see figure).

[3] = test system: Human Follicle Dermal Papilla Cells (HFDPC); experiment: Cell count after trypsination; settings: for cell number compared to untreated cells: depending on concentration and time; for influence on the cell count (conclusion): over 3 weeks
Description: as §1
This investigation was performed on a 24-well scale.
To perform this investigation 5000 cells per well were seeded in the 96-wells with the addition of a maximum of 200 µl medium. The cells were grown for 7 days in pure cell culture medium. The medium was changed every 2-3 days, whereby 100 µl of old medium was removed and replaced by 100 µl of new medium. After 7 days the "pure" cell culture medium was completely removed and medium with the respective additives was added. The cells were then cultivated for 3 weeks with regular replacement of the medium with the respective additives. Cell counting after trypsinizing: The exact cell count of HFDPC was determined after trypsination of the cells in the respective well and uptake of the resulting cell pellets in medium. All pellets of one sample were combined in a cell culture vessel and then counted with a cell counter.

[4] = test system: Human Follicle Dermal Papilla Cells (HFDPC); experiment: Immunofluorescent staining of vimentin; settings: 2c (higher concentration)
[5] = test system: Human Follicle Dermal Papilla Cells (HFDPC); experiment: Cell impedance test on proliferation and toxicity (xCELLigence, cell index)
Description: The influence of various substances on the growth of HDPFC was investigated with the aid of a cell impedance device (xCELLigence® RTCA DP).
To perform this study 5000 HFDPC (Passage: 5) per well were seeded in the 16-well wells, coated on 50 µL collagen with the addition of a maximum of 200 µl medium. The cells were grown for 96 h in pure cell culture medium. After 96 h the "pure" cell culture medium was completely removed and medium with the respective additives was added. A further change with the respective additives took place after 48 h.
The CI (y-axis) is thus a measure of cell proliferation, cell morphology and cell vitality (only vital, adherent HFDPC can proliferate) overtime (x-axis).
The investigation of cell proliferation (cell index CI) or the exact determination of the cell number was carried out in order to detect a possible cytotoxic effect of the substances after addition to the cells. At the beginning of the experiment, the cells were confluently seeded in order to be able to " focus " on the induction of hair growth afterwards.
The influence of various substances on the growth of HDPFC was investigated with the aid of a cell impedance device (xCELLigence® RTCA DP). The xCELLigence® system consists of a measuring unit and software that allows to follow the cell invasion and migration in real time without the influence of additional substances for cell visualization, which could potentially have an impact on the cells. The system measures the electrical impedance via microelectrodes integrated on the bottom of the tissue culture E-plate. It enables the monitoring of changes in adhesion, spreading and proliferation of different cell types in real time, based on the measured cell-electrode impedance. […] This index is composed as follows: CI = (Rtn −Rt0)/(Fi) [formula]
Rtn and Rt0 are the frequency-dependent electrode resistances (a component of the impedance), where Rt0 is measured at time T0 (without cells) and Rtn with cells present. Fi depends on the frequency used in the measurement. Thus CI is a quantitative measure of the number of cells in an electrode-containing well, when comparing the same cell types. Under the same physiological conditions, more cells adhered to the electrodes result in a higher Rtn value, which leads to a higher value for CI. In the absence of living cells (cell culture medium only) or in a suspension of dead cells, the cell index values are close to zero. After cellular attachment to the electrode, the measurement signal correlates linearly with the cell count throughout the experiment. This investigation was performed on a 96-well scale. To perform this study 5000 HFDPC (Passage: 5) per well were seeded in the 96-well wells, coated on 50 µL collagen with the addition of a maximum of 200 µl medium. The cells were grown for 96 h in pure cell culture medium. After 96 h the "pure" cell culture medium was completely removed and medium with the respective additives was added. A further change with the respective additives took place after 48 h. The CI is thus a measure of cell proliferation, cell morphology and cell vitality (only vital, adherent HFDPC can proliferate). (FIG 11)

[6] = 1c (lower concentration), after 3 weeks
[7] = one week after addition of the active ingredients
[8] = 250 µg/mL in medium, first 24 hours after addition

For CCCCC/C=C\C/C=C\C/C=C\C/C=C\CCCC(=O)[O-].[Na+] [arachidonate, Sodium Arachidonate], the “cell morphology / confluence” value ([1]; second week of the experiment) was “almost the same morphology”, the cell density ([1]; second week, higher concentration) was “higher cell density” and the VEGF release [2, 6] was “lower VEGF release”. For the same compound, the cell count ([3]; after 3 weeks, higher concentration, compared to untreated cells) was “increase in HFDPC”, the cell count ([3]; entire duration of the experiment, independent of time and concentration) was “did not negatively affect the cell count” and the cell count ([3]; over 2 weeks) was “remained constant”. For the same compound, the “cell spreading and attachment to the cell culture substrate (vimentin staining)” value [4] was “able to clearly spread and attach to the cell culture substrate”, the cell index ([5]; 50 µg/mL in medium) was “increase the cell index” and the “toxic effect on the cells” value ([5]; 50 µg/mL in medium) was “does not have a toxic effect”. For the same compound, the “toxic effect on the cells” value ([5]; 100µg/mL in medium) was “has a toxic effect”.
CCCCCC[C@@H](O)C/C=C\CCCCCCCC(=O)O [ricinoleic acid, 12-hydroxy-9-cis-octadecenoic acid] was tested, and the “cell morphology / confluence” value ([1]; after 3 weeks, both concentrations) was “confluent, very dense monolayer and an elongated cell shape”, the “cell adherence and proliferation (summary of morphology)” value ([1]; after 3 weeks) was “very beneficial for cell adherence and proliferation” and the “cell morphology / confluence” value [1, 7] was “greater confluence”. For the same compound, the “cell morphology / confluence” value ([1]; second week of the experiment) was “very high confluence in the well and elongated, typical growth”, the VEGF release ([2]; 2.c (higher concentration), after 3 weeks) was “lower VEGF release” and the cell count ([3]; after 1 week, compared to untreated cells) was “the difference was visible in both treated groups compared to untreated cells”. For the same compound, the “cell number compared to untreated cells” value [3] was “significant increase in cell count”, the “influence on the cell count (conclusion)” value [3] was “positive influence on the cell count” and the cell index ([5]; 100µg/mL, after 24 h and 48 h addition) was “remained constant”. For the same compound, the cell index [5, 8] was “positive influence on the cell index”, the “toxic effect on the cells” value [5, 8] was “does not appear to have a toxic effect” and the cell index ([5]; 250 µg/mL, after 48h of repeated addition) was “decreases”.
C[C@@H]1CC[C@@]2(OC1)O[C@H]1C[C@H]3[C@@H]4CC=C5C[C@@H](O)CC[C@]5(C)[C@H]4CC[C@]3(C)[C@H]1[C@@H]2C [diosgenin, Diosgenin] was tested, and the “cell morphology / confluence” value ([1]; after 3 weeks, lower concentration) was “resembled untreated cells”, the “cell adherence and proliferation (summary of morphology)” value ([1]; after 3 weeks) was “very beneficial for cell adherence and proliferation” and the “cell morphology / confluence” value [1, 7] was “greater confluence”. The “cell morphology / confluence” value ([1]; second week of the experiment) was “very high confluence in the well and elongated, typical growth”, the VEGF release ([2]; 1c (lower concentration), after 1 week) was “lower VEGF release” and the VEGF release [2, 6] was “lower VEGF release”. For the same compound, the “number of HDFPC over time” value ([3]; 1c) was “remained constant after addition of Diosgenin 1c, but was increased compared to untreated cells”, the “cell number over time” value ([3]; 2c, compared to untreated and Diosgenin 1c treated cells) was “significant increase in cell number” and the “cell number compared to untreated cells” value [3] was “positive influence on the cell number”. The “influence on the cell count (conclusion)” value [3] was “positive influence on the cell count”, the “cell spreading and attachment to the cell culture substrate (vimentin staining)” value [4] was “able to clearly spread and attach to the cell culture substrate” and the “toxic effect on the cells” value ([5]; measured maximum concentration of 500 µg/mL) was “not toxic”.

Reference: patent publication EP3895686A1, “NATURAL COMPOSITION FOR HAIR GROWTH STIMULATION AND HAIR LOSS PREVENTION AND TREATMENT” (FRAUNHOFER-GESELLSCHAFT zur Förderung der angewandten …, priority 2020, dated 2021)
